In US10633417B2 (priority 2013, dated 2020):
pIC50: −log10 of the molar value.

What was measured:
[1] = biological target: human α9α10 nAChR (Homo sapiens, UniProt Q9GZZ6+Q9UGM1); assay: cell-based; type: cell-based
[2] = test system: Sprague Dawley rats; conditions: rat, in vivo
[3] = test system: Sprague-Dawley rats; conditions: rat, in vivo
[4] = test system: Sprague-Dawley rats; conditions: rat, in vivo; remark: listed apart in the source
[5] = test system: Sprague-Dawley rats; conditions: rat, in vivo; remark: listed apart in the source
[6] = test system: Sprague-Dawley rats; conditions: rat, in vivo; remark: listed apart in the source

Chain of human α9α10 nAChR (Q9UGM1 26-479 limits assumed): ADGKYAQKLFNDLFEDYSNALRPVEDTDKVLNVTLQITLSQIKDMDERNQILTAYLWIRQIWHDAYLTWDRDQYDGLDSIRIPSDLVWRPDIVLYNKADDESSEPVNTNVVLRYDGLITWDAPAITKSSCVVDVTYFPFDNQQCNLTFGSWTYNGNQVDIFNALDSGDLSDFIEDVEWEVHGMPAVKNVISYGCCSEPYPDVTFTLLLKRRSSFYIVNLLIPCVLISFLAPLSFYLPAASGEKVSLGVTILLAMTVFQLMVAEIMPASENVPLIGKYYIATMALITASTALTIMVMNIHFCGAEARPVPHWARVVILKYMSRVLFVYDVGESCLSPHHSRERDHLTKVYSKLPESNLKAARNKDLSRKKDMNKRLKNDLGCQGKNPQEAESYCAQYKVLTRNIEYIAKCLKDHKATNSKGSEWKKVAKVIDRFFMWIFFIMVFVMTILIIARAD
Chain of human α9α10 nAChR (Q9GZZ6 25-450 limits assumed): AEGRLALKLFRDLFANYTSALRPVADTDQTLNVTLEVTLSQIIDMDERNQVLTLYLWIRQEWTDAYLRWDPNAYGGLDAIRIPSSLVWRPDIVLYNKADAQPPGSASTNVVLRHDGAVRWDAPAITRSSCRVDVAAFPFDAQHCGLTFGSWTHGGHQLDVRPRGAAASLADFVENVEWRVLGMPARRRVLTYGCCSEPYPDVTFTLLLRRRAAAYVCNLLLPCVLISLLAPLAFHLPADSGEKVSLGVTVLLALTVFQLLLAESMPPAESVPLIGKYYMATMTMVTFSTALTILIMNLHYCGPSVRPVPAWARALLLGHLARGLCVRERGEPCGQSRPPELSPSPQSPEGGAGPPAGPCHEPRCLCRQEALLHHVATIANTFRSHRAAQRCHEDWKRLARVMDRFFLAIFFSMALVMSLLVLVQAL

Compound | Fold improvement [1] | pIC50 [1] | further results
C[C@@H](O)[C@@H]1NC(=O)[C@@H]2C[Se]SC[C@@H](C(=O)N[C@@H](CCCNC(=N)N)C(=O)O)NC(=O)[C@H](CCC(N)=O)NC(=O)[C@H](Cc3ccc(O)c(I)c3)NC(=O)[C@H](CCCNC(N)=O)NC(=O)[C@H](CS[Se]C[C@H](NC(=O)CN)C(=O)N2)NC(=O)[C@H](CCCNC(=N)N)NC(=O)[C@@H]2CCCN2C(=O)[C@H](CC(=O)O)NC1=O [SEQ ID NO:20, GX4X4TDPRCX2X3QCR] | 5.7 fold |  | fold increase in potency on the human receptor [1]: 10 fold
GCCTDPRCRX3QCY [Analog 11] |  |  | burn-induced thermal hyperalgesia (Hargraves method) [2]: significantly reduced
C[C@@H](O)[C@@H]1NC(=O)[C@@H]2CSSC[C@@H](C(=O)N[C@@H](Cc3ccc(O)cc3)C(=O)O)NC(=O)[C@H](CCC(N)=O)NC(=O)[C@H](Cc3ccc(O)c(I)c3)NC(=O)[C@H](CCCNC(=N)N)NC(=O)[C@H](CSSC[C@H](NC(=O)CN)C(=O)N2)NC(=O)[C@H](CCCNC(=N)N)NC(=O)[C@@H]2CCCN2C(=O)[C@H](CC(=O)O)NC1=O [Analog 11] | 1,123 fold |  | 
C[C@@H](O)[C@@H]1NC(=O)[C@@H]2CSSC[C@@H](C(=O)N[C@@H](Cc3ccc(O)cc3)C(=O)N[C@@H](CCCNC(=N)N)C(=O)O)NC(=O)[C@H](CCC(N)=O)NC(=O)[C@H](Cc3ccc(O)c(I)c3)NC(=O)[C@H](CCCNC(N)=O)NC(=O)[C@H](CSSC[C@H](NC(=O)CN)C(=O)N2)NC(=O)[C@H](CCCNC(=N)N)NC(=O)[C@@H]2CCCN2C(=O)[C@H](CC(=O)O)NC1=O [Analog 10] | 598 fold | 9.08 | 
GCCTDPRCX2X3QCY [Analog 3] |  |  | efficacy on mechanical hyperalgesia 24 h after injection [3]: still significant; pain threshold (mechanical hyperalgesia) 30 min after injection [3]: acutely increased pain threshold; prevention of OXA-induced mechanical hyperalgesia [3]: significantly prevented; OXA-induced pain threshold decrease (von Frey), day 7, 30 min [4]: reverted; activity on mechanical allodynia (von Frey), days 14 and 21 [4]: active; analgesic effect (von Frey), day 7, 24 h later [4]: not observed; prevention of OXA-induced cold allodynia, day 7 [5]: able to prevent OXA-induced cold allodynia; prevention of OXA-induced cold allodynia, day 14 and 21 [5]: able to prevent OXA-induced cold allodynia; potency on the human receptor after further optimization of Analog 2 [1]: improved potency; analgesic effect in OXA chemotherapy induced neuropathic pain [6]: analgesic effect
C[C@@H](O)[C@@H]1NC(=O)[C@@H]2CSSC[C@@H](C(=O)N[C@@H](Cc3c[nH]c4ccccc34)C(=O)O)NC(=O)[C@H](CCC(N)=O)NC(=O)[C@H](Cc3ccc(O)c(I)c3)NC(=O)[C@H](CCCNC(N)=O)NC(=O)[C@H](CSSC[C@H](NC(=O)CN)C(=O)N2)NC(=O)[C@H](CCCNC(=N)N)NC(=O)[C@@H]2CCCN2C(=O)[C@H](CC(=O)O)NC1=O [Analog 8] | 236 fold | 8.68 | 
C[C@@H](O)[C@@H]1NC(=O)[C@@H]2CSSC[C@@H](C(=O)N[C@@H](Cc3ccc(O)cc3)C(=O)N[C@@H](CCCNC(=N)N)C(=O)N[C@@H](CCCNC(=N)N)C(=O)O)NC(=O)[C@H](CCC(N)=O)NC(=O)[C@H](Cc3ccc(O)c(I)c3)NC(=O)[C@H](CCCNC(N)=O)NC(=O)[C@H](CSSC[C@H](NC(=O)CN)C(=O)N2)NC(=O)[C@H](CCCNC(=N)N)NC(=O)[C@@H]2CCCN2C(=O)[C@H](CC(=O)O)NC1=O [Analog 5] | 325 fold | 8.82 | 
C[C@@H](O)[C@@H]1NC(=O)[C@@H]2CSSC[C@@H](C(=O)N[C@@H](CCCNC(=N)N)C(=O)N[C@@H](CCCNC(=N)N)C(=O)N[C@@H](Cc3ccc(O)cc3)C(=O)O)NC(=O)[C@H](CCC(N)=O)NC(=O)[C@H](Cc3ccc(O)c(I)c3)NC(=O)[C@H](CCCNC(N)=O)NC(=O)[C@H](CSSC[C@H](NC(=O)CN)C(=O)N2)NC(=O)[C@H](CCCNC(=N)N)NC(=O)[C@@H]2CCCN2C(=O)[C@H](CC(=O)O)NC1=O [Analog 6] | 120 fold | 8.39 | 
C[C@@H](O)[C@@H]1NC(=O)[C@@H]2CSSC[C@@H](C(=O)N[C@@H](Cc3ccccc3)C(=O)O)NC(=O)[C@H](CCC(N)=O)NC(=O)[C@H](Cc3ccc(O)c(I)c3)NC(=O)[C@H](CCCNC(N)=O)NC(=O)[C@H](CSSC[C@H](NC(=O)CN)C(=O)N2)NC(=O)[C@H](CCCNC(=N)N)NC(=O)[C@@H]2CCCN2C(=O)[C@H](CC(=O)O)NC1=O [Analog 7] | 470 fold | 8.98 | 
C[C@@H](O)[C@@H]1NC(=O)[C@@H]2CSSC[C@@H](C(=O)N[C@@H](Cc3ccc(O)cc3)C(=O)N[C@@H](Cc3ccc(O)cc3)C(=O)O)NC(=O)[C@H](CCC(N)=O)NC(=O)[C@H](Cc3ccc(O)c(I)c3)NC(=O)[C@H](CCCNC(N)=O)NC(=O)[C@H](CSSC[C@H](NC(=O)CN)C(=O)N2)NC(=O)[C@H](CCCNC(=N)N)NC(=O)[C@@H]2CCCN2C(=O)[C@H](CC(=O)O)NC1=O [Analog 9] | 553 fold | 9.05 | 
GCCTDPRCX2X3QCRRR [Analog 4] |  |  | potency on the human receptor after further optimization of Analog 2 [1]: improved potency
C[C@@H](O)[C@@H]1NC(=O)[C@@H]2CSSC[C@@H](C(=O)N[C@@H](CCCNC(=N)N)C(=O)N[C@@H](CCCNC(=N)N)C(=O)N[C@@H](CCCNC(=N)N)C(=O)O)NC(=O)[C@H](CCC(N)=O)NC(=O)[C@H](Cc3ccc(O)c(I)c3)NC(=O)[C@H](CCCNC(N)=O)NC(=O)[C@H](CSSC[C@H](NC(=O)CN)C(=O)N2)NC(=O)[C@H](CCCNC(=N)N)NC(=O)[C@@H]2CCCN2C(=O)[C@H](CC(=O)O)NC1=O [Analog 4] | 109 fold | 8.34 | 
